Assay results as given in patent publication EP2233463A1, “NEW COMPOUNDS ISOLATED FROM EXTRACT OF ANTRODIA CAMPHORATA” (Golden Biotechnology Corporation, priority 2007, dated 2009).
In brackets after ≈: the same amount, converted by molar mass.

How the values were obtained:
Format in all cases: cell-based
[1] = tested on: human hepatic-cancer cells, Hep G2; experiment: Ex vivo survival assay (MTT) for anti-hepatic cancer effects, Hep G2; settings: for IC50 value lower than that of crude extracts from A. camphorata: Hep G2, relative to crude extracts (18.63 µg/ml); for IC50 ( µg/ml ) HepG2: Hep G2 cells, 48 hours incubation, MTT, 570 nm
From the text: (§1) MTT assay is commonly used to determine cell proliferation, percent of viable cells, and cytotoxicity. 3-[4,5-dimethylthiazol-2-yl]2,5-diphenyltetrazolium bromide (MTT) is a yellow dye, which can be absorbed by the living cells and be reduced to purplish blue formazan crystals by succinate tetrazolium reductase in mitochondria. Formazan formation can therefore be used to assess and determine the survival rate of cells. The NCI anti-cancer drug screen model was employed to test the anti-cancer effect of the Antroquinonol B and Antroquinono C in the present invention. The Antroquinonos isolated from example 1 were added into the culture media of human hepatic-cancer cells, Hep 3B or Hep G2, for tumor cell survival assay. Hepatic-cancer cells Hep 3B (BCRC 60434) and Hep G2 (BCRC 60025), were obtained from the Bioresources Collection and Research Center (BCRC) of the Food Industry Research and Development Institute. The human hepatic-cancer cells, Hep 3B and Hep G2, were cultivated in media containing fetal calf serum for 24 hours. The proliferated cells were washed once with PBS, then treated with 1x trypsin-EDTA and centrifuged at 1200 rpm for 5 minutes. The supernatant was discarded and the cell pellet was resuspended in 10 ml of fresh culture medium by gently shaking. The cells were placed in a 96-well plate. Total ethanol extracts of Antrodia camphorata without purification (the control group), Antroquinonol B or Antroquinonol C (the experimental group) were added into each of the 96 wells at the following concentrations: 30, 10, 3, 1, 0.3, 0.1 and 0.03 µg/ml, respectively. The cells were incubated at 37°C in a 5% CO2 incubator for 48 hours. MTT was added in a concentration of 2.5 mg/ml into each well in dark and incubated for 4 hours, followed by the addition of 100 µl of lysis buffer to stop the reaction. The plates were read on an ELISA reader at wavelength of 570 nm to determine the survival rates. Table 3 Results of ex vivo survival assay for inhibition of hepatic cancer cells

[2] = tested on: human breast-cancer cells, MCF-7; experiment: Ex vivo survival assay (MTT) for anti-breast cancer effects, MCF-7; settings: for IC50 value lower than that of crude extracts from A. camphorata: MCF-7, relative to crude extracts (11.13 µg/ml); for IC50(µg/ml) MCF-7: MCF-7 cells, 48 hours incubation, MTT, 570 nm
Description: (§2) The NCI anti-cancer drug screen model was adopted to test the anti-cancer effect of the isolated compounds from example 1 in the present invention. The isolated Antroquinonol B and Antroquinonol C from example 1 were added into the culture media of human breast-cancer cells, MCF-7 or MDA-MB-231, to test for tumor cell survival. This survival assay was carried out with the widely known MTT (3-[4,5-dimethylthiazol-2-yl]2,5-diphenyltetrazolium bromide) assay. MCF-7 cell line is originated from primary breast cancer cells (early stage), sensitive to estrogen and therefore is estrogen-dependent, while MDA-MB-231 is insensitive to estrogen and therefore is estrogen-independent, which is a difficult tumor with a low survival rate. MTT assay is commonly used to determine cell proliferation, percent of viable cells, and cytotoxicity. 3-[4,5-dimethylthiazol-2-yl]2,5-diphenyltetrazolium bromide (MTT) is a yellow dye, which can be absorbed by the living cells and be reduced to purplish blue formazan crystals by succinate tetrazolium reductase in mitochondria. Formazan formation can therefore be used to assess and determine the survival rate of cells. The human breast-cancer cells, MCF-7 (purchased from the Bioresources Collection and Research Center (BCRC) with the accession number of BCRC60436) and MDA-MB-231 (purchased from National Health Research Institutes (NHRI) with the accession number of CCRC 60425) were cultivated in media containing fetal calf serum for 24 hours. The proliferated cells were washed once with PBS, then treated with 1x trypsin-EDTA and centrifuged at 1200 rpm for 5 minutes. The supernatant was discarded and the cell pellet was resuspended in 10 ml of fresh culture medium by gently shaking. The cells were placed in a 96-well plate. Total ethanol extracts of Antrodia camphorata without purification (the control group), Antroquinonol B or Antroquinonol C (the experimental group) were added into each of the 96 wells at the following concentrations: 30, 10, 3, 1, 0.3, 0.1 and 0.03 µg/ml, respectively. The cells were incubated at 37°C in a 5% CO2 incubator for 48 hours. MTT was added in a concentration of 2.5 mg/ml into each well in dark and incubated for 4 hours, followed by the addition of 100 µl of lysis buffer to stop the reaction. The plates were read on an ELISA reader at wavelength of 570 nm to determine the survival rates. Table 1 Results of ex vivo survival assay for inhibition of breast cancer cells

[3] = tested on: human lung cancer cell A549; experiment: Ex vivo survival assay (MTT) for anti-lung cancer effects, A549; settings: for IC50 value lower than that of crude extracts from A. camphorata: A549, relative to crude extracts (13.21 µg/ml); for IC50 ( µg/ml ) A549: A549 cells, 48 hours incubation, MTT, 570 nm
From the text: MTT assay is commonly used to determine cell proliferation, percent of viable cells, and cytotoxicity. 3-[4,5-dimethylthiazol-2-yl]2,5-diphenyltetrazolium bromide (MTT) is a yellow dye, which can be absorbed by the living cells and be reduced to purplish blue formazan crystals by succinate tetrazolium reductase in mitochondria. Formazan formation can therefore be used to assess and determine the survival rate of cells. The NCI anti-cancer drug screen model was also employed to test the anti-lung cancer effect of the Antroquinonol B and Antroquinonol C in the present invention. The Antroquinonols isolated from example 1 were added into the culture media of human lung cancer cell A549 with the abovementioned MTT assay to analyze lung cancer cell survival rates. Human lung cancer cell A549 was obtained from the Bioresources Collection and Research Center (BCRC) of the Food Industry Research and Development Institute with an accession number of BCRC 60074. A549 cells were cultivated in media containing fetal calf serum for 24 hours. The proliferated cells were washed once with PBS, then treated with 1x trypsin-EDTA and centrifuged at 1200 rpm for 5 minutes. The supernatant was discarded and the cell pellet was resuspended in 10 ml of fresh culture medium by gently shaking. The cells were placed in a 96-well plate. Total ethanol extracts of Antrodia camphorata without purification (the control group), Antroquinonol B or Antroquinonol C (the experimental group) were added into each of the 96 wells at the following concentrations: 30, 10, 3, 1, 0.3, 0.1 and 0.03 µg/ml, respectively. The cells were incubated at 37°C in a 5% CO2 incubator for 48 hours. MTT was added in a concentration of 2.5 mg/ml into each well in dark and incubated for 4 hours, followed by the addition of 100 µl of lysis buffer to stop the reaction. The plates were read on an ELISA reader at wavelength of 570 nm to determine the survival rates. Table 2 Results of ex vivo survival assay for inhibition of lung cancer cells

[4] = tested on: human prostate cancer cells, DU-145; experiment: Ex vivo survival assay (MTT) for anti-prostate cancer effects, DU-145; settings: for IC50 value lower than the IC50 value of the control group: DU-145, relative to control group (41.39 µg/ml); for IC50 ( µg/ml ) DU-145: DU-145 cells, 48 hours incubation, MTT, 570 nm
From the text: (§3) MTT assay is commonly used to determine cell proliferation, percent of viable cells, and cytotoxicity. 3-[4,5-dimethylthiazol-2-yl]2,5-diphenyltetrazolium bromide (MTT) is a yellow dye, which can be absorbed by the living cells and be reduced to purplish blue formazan crystals by succinate tetrazolium reductase in mitochondria. Formazan formation can therefore be used to assess and determine the survival rate of cells.
(§4) The NCI anti-cancer drug screen model was also employed to test the anti-cancer effect of the Antroquinonols in the present invention. Antroquinonol B and Antroquinonol C isolated from […] were added into the culture media of human prostate cancer cells, LNCaP or DU-145, and prostate cancer cell survival rates were analyzed with the abovementioned MTT assay. LNCaP is originated from epithelial cells of prostate gland, which depends on androgen in the early stage and thus is androgen-dependent cancer cell. […] This recurrent type prostate cancer has no effective treatment so far. Both LNCaP and DU-145 were ordered from NHRI with accession numbers of CCRC 60088 and CCRC 60348 respectively.
(§5) The human prostate-cancer cells, LNCaP and DU-145, were cultivated in media containing fetal calf serum for 24 hours. The proliferated cells were washed once with PBS, then treated with 1x trypsin-EDTA and centrifuged at 1200 rpm for 5 minutes. The supernatant was discarded and the cell pellet was resuspended in 10 ml of fresh culture medium by gently shaking. The cells were placed in a 96-well plate. Total ethanol extracts of Antrodia camphorata without purification (the control group), Antroquinonol B or Antroquinonol C (the experimental group) were added into each of the 96 wells at the following concentrations: 30, 10, 3, 1, 0.3, 0.1 and 0.03 µg/ml, respectively. The cells were incubated at 37°C in a 5% CO2 incubator for 48 hours. MTT was added in a concentration of 2.5 mg/ml into each well in dark and incubated for 4 hours, followed by the addition of 100 µl of lysis buffer to stop the reaction. The plates were read on an ELISA reader at wavelength of 570 nm to determine the survival rates. Table 4 Results of ex vivo survival assay for inhibition of prostate cancer cells

[5] = tested on: human hepatic-cancer cells, Hep 3B; experiment: Ex vivo survival assay (MTT) for anti-hepatic cancer effects, Hep 3B; settings: for IC50 ( µg/ml ) Hep3B: Hep 3B cells, 48 hours incubation, MTT, 570 nm; for IC50 value lower than that of crude extracts from A. camphorata: Hep 3B, relative to crude extracts (5.10 µg/ml)
From the text: as §1

[6] = tested on: human breast-cancer cells, MDA-MB-231; experiment: Ex vivo survival assay (MTT) for anti-breast cancer effects, MDA-MB-231; settings: for IC50 value lower than that of crude extracts from A. camphorata: MDA-MB-231, relative to crude extracts (25.81 µg/ml); for IC50(µg/ml) MDA-MB-231: MDA-MB-231 cells, 48 hours incubation, MTT, 570 nm
Description: as §2

[7] = tested on: human prostate cancer cells, LNCaP; experiment: Ex vivo survival assay (MTT) for anti-prostate cancer effects, LNCaP; settings: for IC50 ( µg/ml ) LNCaP: LNCaP cells, 48 hours incubation, MTT, 570 nm; for IC50 value lower than the IC50 value of the control group: LNCaP, relative to control group (11.49 µg/ml)
From the text: as §3, §4, §5

Compound: COC1=C(OC)[C@H](O)[C@H](C/C=C(\C)CC/C=C(/C)C/C=C/C(C)(C)O)[C@@H](C)C1=O [Antroquinonol B]
- IC50 value lower than that of crude extracts from A. camphorata [1]: 82.18%
- IC50 ( µg/ml ) HepG2 [1]: 3.32 µg/mL (≈ 8.17 µM)
- IC50 value lower than that of crude extracts from A. camphorata [2]: 82.56%
- IC50(µg/ml) MCF-7 [2]: 1.94 µg/mL (≈ 4.77 µM)
- IC50 value lower than that of crude extracts from A. camphorata [3]: 9.92%
- IC50 ( µg/ml ) A549 [3]: 11.9 µg/mL (≈ 29.3 µM)
- IC50 value lower than the IC50 value of the control group [4]: 75.55%
- IC50 ( µg/ml ) DU-145 [4]: 10.12 µg/mL (≈ 24.9 µM)
- IC50 ( µg/ml ) Hep3B [5]: 1.21 µg/mL (≈ 2.98 µM)
- IC50 value lower than that of crude extracts from A. camphorata [5]: 76.27%
- IC50 value lower than that of crude extracts from A. camphorata [6]: 66.21%
- IC50(µg/ml) MDA-MB-231 [6]: 8.72 µg/mL (≈ 21.4 µM)
- IC50 ( µg/ml ) LNCaP [7]: 5.67 µg/mL (≈ 13.9 µM)
- IC50 value lower than the IC50 value of the control group [7]: 50.65%

Compound: Antroquinonol C
- IC50 value lower than that of crude extracts from A. camphorata [1]: 72.52%
- IC50 ( µg/ml ) HepG2 [1]: 5.12 µg/mL
- IC50 value lower than that of crude extracts from A. camphorata [2]: 89.49%
- IC50(µg/ml) MCF-7 [2]: 1.17 µg/mL
- IC50 value lower than that of crude extracts from A. camphorata [3]: 37.85%
- IC50 ( µg/ml ) A549 [3]: 8.21 µg/mL
- IC50 value lower than the IC50 value of the control group [4]: 70.5%
- IC50 ( µg/ml ) DU-145 [4]: 12.21 µg/mL
- IC50 ( µg/ml ) Hep3B [5]: 1.32 µg/mL
- IC50 value lower than that of crude extracts from A. camphorata [5]: 74.12%
- IC50 value lower than that of crude extracts from A. camphorata [6]: 15.15%
- IC50(µg/ml) MDA-MB-231 [6]: 21.9 µg/mL
- IC50 ( µg/ml ) LNCaP [7]: 8.72 µg/mL
- IC50 value lower than the IC50 value of the control group [7]: 24.11%
